Reference: patent US12180139B2, “Method for preparing aminoalkanoic acid derivative containing biphenyl group” (AMTIXBIO CO., LTD., priority 2019, dated 2024)
Converted amounts (≈) assume the structure as drawn.

Key:
S. aureus (+) = settings: MHB liquid medium, 37° C., 24 hours
Procedure: (§1) The antibacterial activities against Gram-positive bacteria, Gram-negative bacteria or multi-drug resistant bacteria were evaluated for the compounds of the present invention. The MIC test was conducted in accordance CLSI guidelines. E. coli(−), P. aeruginosa(−), and S. enterica(−) were used as Gram-negative bacteria, B. cereus(+), B. subtilis(+), B. coagulans(+), L. monocytogenes(+), M. luteus(+), P. acnes(+), S. epidermidis(+), and S. aureus(+) were used as Gram-positive bacteria. Methicillin-resistant Staphylococcus aureus (MRSA) was used as multi-drug resistant bacteria. The bacterial cells were incubated until the OD600 of the single colonies reached 0.1. […] Subsequently, bacterial cells were incubated at 37° C. for 24 hours, and then the MICs (μg/ ? ) were determined by visual reading and optical density detection at 600 nm (OD600). As a positive control, Nofloxacin and Vancomycin were used.

S. epidermidis (+) = settings: MHB liquid medium, 37° C., 24 hours
Procedure: as §1

A. fumigatus = settings: visual reading; expressed as a range value
C. albicans = settings: RPMI1640 broth, 35° C., 48 hours, visual reading; expressed as a range value
B. coagulans (+) = assay: Antibacterial MIC test (CLSI); format: cell-based; settings: for MIC B. coagulans (+): MHB liquid medium, 37° C., 24 hours
Procedure: (§2) The MIC test was conducted in accordance CLSI guidelines. […] As a positive control, Nofloxacin and Vancomycin were used.

L. monocytogenes (+) = assay: Antibacterial MIC test (CLSI); format: cell-based; settings: for MIC L. monocytogenes (+): MHB liquid medium, 37° C., 24 hours
Procedure: as §2

B. cereus (+) = assay: Antibacterial MIC test (CLSI); format: cell-based; settings: for MIC B. cereus (+): MHB liquid medium, 37° C., 24 hours
Procedure: as §2

S. aureus enterica (−) = assay: Antibacterial MIC test (CLSI); format: cell-based; settings: for MIC S. aureus enterica (−): MHB liquid medium, 37° C., 24 hours
Procedure: as §2

P. acnes (+) = assay: Antibacterial MIC test (CLSI); format: cell-based; settings: for MIC P. acnes (+): MHB liquid medium, 37° C., 24 hours
Procedure: as §2

B. subtilis (+) = assay: Antibacterial MIC test (CLSI); format: cell-based; settings: for MIC B. subtilis (+): MHB liquid medium, 37° C., 24 hours
Procedure: as §2

E. coli (−) = assay: Antibacterial MIC test (CLSI); format: cell-based; settings: for MIC E. coli (−): MHB liquid medium, 37° C., 24 hours
Procedure: as §2

MRSA = assay: Antibacterial MIC test (CLSI); format: cell-based, Methicillin-resistant Staphylococcus aureus; settings: for MIC MRSA: MHB liquid medium, 37° C., 24 hours
Procedure: as §2

C. glabrata = settings: RPMI1640 broth, 35° C., 48 hours, visual reading; expressed as a range value
Procedure: (§3) An in vitro antifungal susceptibility test was performed in accordance with the US Clinical and Laboratory Standards Institute (CLSI) guidelines to measure the degree of antifungal activity of the compounds synthesized in the Preparation Examples against opportunistic pathogenic fungi. […] The MIC value (μg/ ? ) is expressed as a range value. Specifically, Candida species and Cryptococcus neoformans were incubated in a Sabouraud dextrose agar (SDA) (Sigma-Aldrich) solid medium for 24 and 48 hours, respectively to obtain single colonies. The obtained single colonies were suspended in 0.85% physiological saline to prepare fungal cell suspension (1 to 5×10^6 cells/ ? ). Fungal cells 2000-fold diluted in RPMI1640 broth (Sigma-Aldrich) were seeded on 96-well plates (5×10^2 to 2.5×10^3 cells/ ? , 195 ? /well). Serial two-fold dilutions (128, 64, 32, 16, 8, 4, 2, 1, and 0.5 μg/ ? ) of compounds were prepared by diluting the compounds synthesized according to the above preparation examples. Then, 5 ? from each dilution was added to the well of the 96-well plate containing fungal cell suspension to give a final suspension of 200 ? per well. […] As a positive control, amphotericin B (AMB), which is highly toxic to the human body but is known as a representative antifungal agent, was used.

C. neoformans = settings: RPMI1640 broth, 35° C., 72 hours, visual reading; expressed as a range value
Procedure: as §3

M. luteus (+) = assay: Antibacterial MIC test (CLSI); format: cell-based; settings: for MIC M. luteus (+): MHB liquid medium, 37° C., 24 hours
Procedure: as §2

CCCC(N)C(=O)Nc1ccc(-c2ccc(Cl)c(Cl)c2)cc1.Cl (racemic) [Compound 30, (R)/(S)-2-amino-N-(3′,4′-dichloro-[1,1′-biphenyl]-4-yl)pentanamide hydrochloride]
MIC S. aureus (+) (S. aureus (+)): 16 µg/mL | MIC S. epidermidis (+) (S. epidermidis (+)): 16 µg/mL | MIC (μg/mL) A. fumigatus (A. fumigatus): 4~16 μg/mL | MIC (μg/mL) C. albicans (C. albicans): 4~16 μg/mL | MIC B. coagulans (+) (B. coagulans (+)): 8 µg/mL | MIC L. monocytogenes (+) (L. monocytogenes (+)): 16 µg/mL | MIC B. cereus (+) (B. cereus (+)): 32 µg/mL | MIC S. aureus enterica (−) (S. aureus enterica (−)): >32 µg/mL | MIC P. acnes (+) (P. acnes (+)): 16 µg/mL | MIC B. subtilis (+) (B. subtilis (+)): 16 µg/mL | MIC E. coli (−) (E. coli (−)): >32 µg/mL | MIC MRSA (MRSA): 16 µg/mL | MIC (μg/mL) C. glabrata (C. glabrata): 4~16 μg/mL | MIC (μg/mL) C. neoformans (C. neoformans): 2~8 μg/mL

CCCCC(NC)C(=O)NCCc1ccc(-c2ccc(Cl)c(Cl)c2)cc1.Cl (racemic) [Compound 85, (R)/(S)-N-(2-(3′,4′-dichloro-[1,1′-biphenyl]-4-yl)ethyl)-2-(methylamino)hexanamide hydrochloride]
MIC S. aureus (+) (S. aureus (+)): 16 µg/mL | MIC S. epidermidis (+) (S. epidermidis (+)): 16 µg/mL | MIC (μg/mL) A. fumigatus (A. fumigatus): 0.5~4 μg/mL | MIC (μg/mL) C. albicans (C. albicans): 0.5~4 μg/mL | MIC B. coagulans (+) (B. coagulans (+)): 4 µg/mL | MIC L. monocytogenes (+) (L. monocytogenes (+)): 16 µg/mL | MIC B. cereus (+) (B. cereus (+)): 32 µg/mL | MIC S. aureus enterica (−) (S. aureus enterica (−)): >32 µg/mL | MIC P. acnes (+) (P. acnes (+)): 16 µg/mL | MIC B. subtilis (+) (B. subtilis (+)): 16 µg/mL | MIC E. coli (−) (E. coli (−)): >32 µg/mL | MIC M. luteus (+) (M. luteus (+)): 8 µg/mL | MIC MRSA (MRSA): 16 µg/mL | MIC (μg/mL) C. glabrata (C. glabrata): 0.5~4 μg/mL | MIC (μg/mL) C. neoformans (C. neoformans): 0.5~4 μg/mL

CCCCC(N)C(=O)NCCc1ccc(-c2ccc(OC(F)(F)F)cc2)cc1.Cl (racemic) [Compound 81, (R)/(S)-2-amino-N-(2-(4′-(trifluoromethoxy)-[1,1′-biphenyl]-4-yl)ethyl)hexanamide hydrochloride]
MIC S. aureus (+) (S. aureus (+)): 8 µg/mL | MIC S. epidermidis (+) (S. epidermidis (+)): 8 µg/mL | MIC (μg/mL) A. fumigatus (A. fumigatus): 2~8 μg/mL | MIC (μg/mL) C. albicans (C. albicans): 2~8 μg/mL | MIC B. coagulans (+) (B. coagulans (+)): <4 µg/mL | MIC L. monocytogenes (+) (L. monocytogenes (+)): <4 µg/mL | MIC B. cereus (+) (B. cereus (+)): 16 µg/mL | MIC S. aureus enterica (−) (S. aureus enterica (−)): 16 µg/mL | MIC P. acnes (+) (P. acnes (+)): 8 µg/mL | MIC B. subtilis (+) (B. subtilis (+)): 4 µg/mL | MIC E. coli (−) (E. coli (−)): 8 µg/mL | MIC M. luteus (+) (M. luteus (+)): <4 µg/mL | MIC MRSA (MRSA): 8 µg/mL | MIC (μg/mL) C. glabrata (C. glabrata): 2~8 μg/mL | MIC (μg/mL) C. neoformans (C. neoformans): 2~8 μg/mL

CCCC(NC)C(=O)Nc1ccc(-c2ccc(Cl)c(Cl)c2)cc1.Cl (racemic) [Compound 34, (R)/(S)-N-(3′,4′-dichloro-[1,1′-biphenyl]-4-yl)-2-(methylamino)pentanamide hydrochloride]
MIC S. aureus (+) (S. aureus (+)): <4 µg/mL | MIC S. epidermidis (+) (S. epidermidis (+)): <4 µg/mL | MIC (μg/mL) A. fumigatus (A. fumigatus): 8~32 μg/mL | MIC (μg/mL) C. albicans (C. albicans): 4~16 μg/mL | MIC B. coagulans (+) (B. coagulans (+)): <4 µg/mL | MIC L. monocytogenes (+) (L. monocytogenes (+)): <4 µg/mL | MIC B. cereus (+) (B. cereus (+)): 8 µg/mL | MIC S. aureus enterica (−) (S. aureus enterica (−)): 32 µg/mL | MIC P. acnes (+) (P. acnes (+)): <4 µg/mL | MIC B. subtilis (+) (B. subtilis (+)): <4 µg/mL | MIC E. coli (−) (E. coli (−)): 8 µg/mL | MIC M. luteus (+) (M. luteus (+)): <4 µg/mL | MIC MRSA (MRSA): <4 µg/mL | MIC (μg/mL) C. glabrata (C. glabrata): 8~32 μg/mL | MIC (μg/mL) C. neoformans (C. neoformans): 2~8 μg/mL

CCCC(NC)C(=O)NCCc1ccc(-c2ccc(OC(F)(F)F)cc2)cc1.Cl (racemic) [Compound 90, (R)/(S)-2-(methylamino)-N-(2-(4′-(trifluoromethoxy)-[1,1′-biphenyl]-4-yl)ethyl)pentanamide hydrochloride]
MIC (μg/mL) A. fumigatus (A. fumigatus): 4~16 μg/mL | MIC (μg/mL) C. albicans (C. albicans): 4~16 μg/mL | MIC (μg/mL) C. glabrata (C. glabrata): 4~16 μg/mL | MIC (μg/mL) C. neoformans (C. neoformans): 4~16 μg/mL

CN[C@H](CC(C)C)C(=O)N[C@H]1C(=O)N[C@@H](CC(N)=O)C(=O)N[C@H]2C(=O)N[C@H]3C(=O)N[C@H](C(=O)N[C@H](C(=O)O)c4cc(O)cc(O)c4-c4cc3ccc4O)[C@H](O)c3ccc(c(Cl)c3)Oc3cc2cc(c3O[C@@H]2O[C@H](CO)[C@@H](O)[C@H](O)[C@H]2O[C@H]2C[C@](C)(N)[C@H](O)[C@H](C)O2)Oc2ccc(cc2Cl)[C@H]1O [Vancomycin, reference compound]
MIC (B. coagulans (+); Heyndrickxia coagulans, 24 h, read-out: MIC B. coagulans (+)): 0.25 µg/mL (≈ 0.173 µM) | MIC (L. monocytogenes (+); Listeria monocytogenes, 24 h, read-out: MIC L. monocytogenes (+)): 0.25 µg/mL (≈ 0.173 µM) | MIC (B. cereus (+); Bacillus cereus, 24 h, read-out: MIC B. cereus (+)): 0.5 µg/mL (≈ 0.345 µM) | MIC (S. aureus enterica (−); Staphylococcus aureus, 24 h, read-out: MIC S. aureus enterica (−)): > 64 µg/mL | MIC (P. acnes (+); Cutibacterium acnes, 24 h, read-out: MIC P. acnes (+)): < 0.125 µg/mL | MIC (B. subtilis (+); Bacillus subtilis, 24 h, read-out: MIC B. subtilis (+)): 0.25 µg/mL (≈ 0.173 µM) | MIC (E. coli (−); Escherichia coli, 24 h, read-out: MIC E. coli (−)): 64 µg/mL (≈ 44.2 µM) | MIC (M. luteus (+); Micrococcus luteus, 24 h, read-out: MIC M. luteus (+)): 0.25 µg/mL (≈ 0.173 µM) | MIC (MRSA; Staphylococcus aureus, MRSA, 24 h, read-out: MIC MRSA): 1 µg/mL (≈ 0.69 µM)

CCn1cc(C(=O)O)c(=O)c2cc(F)c(N3CCNCC3)cc21 [Nofloxacin, reference compound]
MIC B. coagulans (+) (B. coagulans (+)): <0.125 µg/mL | MIC L. monocytogenes (+) (L. monocytogenes (+)): <0.125 µg/mL | MIC B. cereus (+) (B. cereus (+)): 1 µg/mL (≈ 3.13 µM) | MIC S. aureus enterica (−) (S. aureus enterica (−)): <0.125 µg/mL | MIC P. acnes (+) (P. acnes (+)): <0.125 µg/mL | MIC B. subtilis (+) (B. subtilis (+)): <0.125 µg/mL | MIC E. coli (−) (E. coli (−)): <0.125 µg/mL | MIC M. luteus (+) (M. luteus (+)): <0.125 µg/mL | MIC MRSA (MRSA): 0.5 µg/mL (≈ 1.57 µM)

C[C@@H]1[C@H](O)[C@@H](C)/C=C/C=C/C=C/C=C/C=C/C=C/C=C/[C@H](O[C@@H]2O[C@H](C)[C@@H](O)[C@H](N)[C@@H]2O)C[C@@H]2O[C@](O)(C[C@@H](O)C[C@@H](O)[C@H](O)CC[C@@H](O)C[C@@H](O)CC(=O)O[C@H]1C)C[C@H](O)[C@H]2C(=O)O [ABM, amphotericin B, reference compound]
MIC (μg/mL) A. fumigatus (A. fumigatus): 1 µg/mL (≈ 1.08 µM) | MIC (μg/mL) C. albicans (C. albicans): 0.25 µg/mL (≈ 0.271 µM) | MIC (μg/mL) C. glabrata (C. glabrata): 0.5 µg/mL (≈ 0.541 µM) | MIC (μg/mL) C. neoformans (C. neoformans): 0.25 µg/mL (≈ 0.271 µM)

CCCCC(N)C(=O)NCCc1ccc(-c2ccc(Cl)c(Cl)c2)cc1.Cl (racemic) [Compound 75, (R)/(S)-2-amino-N-(2-(3′,4′-dichloro-[1,1′-biphenyl]-4-yl)ethyl)hexanamide hydrochloride]
MIC S. aureus (+) (S. aureus (+)): 8 µg/mL | MIC S. epidermidis (+) (S. epidermidis (+)): 8 µg/mL | MIC (μg/mL) A. fumigatus (A. fumigatus): 0.5~4 μg/mL | MIC (μg/mL) C. albicans (C. albicans): 0.5~4 μg/mL | MIC L. monocytogenes (+) (L. monocytogenes (+)): 8 µg/mL | MIC B. cereus (+) (B. cereus (+)): 16 µg/mL | MIC S. aureus enterica (−) (S. aureus enterica (−)): >32 µg/mL | MIC P. acnes (+) (P. acnes (+)): 8 µg/mL | MIC B. subtilis (+) (B. subtilis (+)): 8 µg/mL | MIC E. coli (−) (E. coli (−)): 32 µg/mL | MIC M. luteus (+) (M. luteus (+)): 8 µg/mL | MIC MRSA (MRSA): 8 µg/mL | MIC (μg/mL) C. glabrata (C. glabrata): 0.5~4 μg/mL | MIC (μg/mL) C. neoformans (C. neoformans): 0.5~4 μg/mL

CCCC(C(=O)NCCc1ccc(-c2ccc(Cl)c(Cl)c2)cc1)N(C)C (racemic) [Compound 92, (R)/(S)-N-(2-(3′,4′-dichloro-[1,1′-biphenyl]-4-yl)ethyl)-2-(dimethylamino)pentanamide]
MIC (μg/mL) A. fumigatus (A. fumigatus): 8~32 μg/mL | MIC (μg/mL) C. albicans (C. albicans): 8~32 μg/mL | MIC (μg/mL) C. glabrata (C. glabrata): 8~32 μg/mL | MIC (μg/mL) C. neoformans (C. neoformans): 4~16 μg/mL
